From patent US12478658B2, “Enhanced efficacy of combination of gemcitabine and phosphatidylserine-targeted nanovesicles against pancreatic cancer” (University of Cincinnati, priority 2020, dated 2025)

Columns and labels:
cfPac-1 cells = test: MTT viability of cells sorted into low and high surface PS populations after GEM; format: cell-based, human
Procedure: Cell Sorting. Cells were grown to 60-80% confluency then stained with annexin V-FITC as above but without PI. The cells were then passed through a cell sorter (BD Aria III) and cells with low and high surface PS were collected (˜15% of the cells at each end of the peak; see FIG. 1). The cells were placed in 96 well plates and immediately treated with 0, 25 or 50 nM of GEM. The MTT assay (Roche) was conducted 72 hr later to determine the effect of the GEM on cell viability.

[1] = system: cfPac-1, MiaPaCa-2 and p53.2.2.1 cells; test: Cell cycle analysis by Hoechst staining after GEM or SapC-DOPS; format: cell-based, human, mouse; details: GEM 1-2 μM 24 hrs; SapC-DOPS 20-30 μM 72 hrs
Procedure: For cell cycle analyses of cells treated with GEM or SapC-DOPS, MiaPaCa-2, cfPac-1 and p53.2.2.1 cells were cultured to 70% confluency. Cells (2.5×10^5) were plated overnight in 60 mm cell culture plates. MiaPaCa-2, cfPac-1 and p53.2.2.1 were treated with 1 μM, 2 μM, and 1 μM GEM respectively for 24 hrs. or with 30 μM, 25 μM and 20 μM SapC-DOPS respectively for 72 hrs. (MiaPaCa-2 and p53.2.2.1) or 24 hrs (cfPac-1). Following treatment, 10^6 cells were stained with Hoechst 33342 as described above.

[2] = system: cfPac-1 and MiaPaCa-2 cells; test: Western blot cyclin B1/cyclin D1 ratio after GEM or SapC-DOPS; format: cell-based, human; details: cfPac-1 and MiaPaCa-2, western blot after treatment
Procedure: Protein expression of cyclins D1 (a G1 marker) and B1 (a G2/M marker) following treatment with GEM or SapC-DOPS was measured by western blot and the cyclin B1 to cyclin D1 ratio was quantified in cfPac-1.
Western blot analyses. Following treatment with GEM or SapC-DOPS, cells were washed with PBS and lysed in RIPA Buffer (Sigma) supplemented with protease inhibitor cocktail tablets (Roche). A total of 30 μg of protein extract was separated using 4-15% Mini-PROTEAN Precast Gels (Bio-Rad) and transferred to Hybond-ECL Nitrocellulose membrane (Biosciences). Membranes were blocked for 1 hr. in 5% nonfat dry milk in 0.1% Tween-20 in PBS at 4° C. Blocked membranes were incubated with primary antibodies overnight at 4° C. Subsequently, membranes were washed 3 times for 10 min. with 0.1% Tween-20 in PBS. Secondary antibodies were incubated for 1 hr. at room temperature. Membranes were washed as above and incubated with SuperSignal West Dura Extended Duration Substrate (Thermo Scientific) for 5 min. Detection was performed using the ChemiDoc Touch Imaging System (Bio-Rad). Image Lab 5.2.1 software (Bio-Rad) was used to quantify the proteins on the western blots.

MiaPaCa-2 cells = test: Cell cycle stage targeting in hydroxyurea-synchronized cells; format: cell-based, human; details: G1 synchronized MiaPaCa-2; 1 μM GEM 24 hrs or 30 μM SapC-DOPS 48 hrs
Procedure: MiaPaCa-2 were treated with 4 mM hydroxyurea (HU) for synchronization. […] Following drug treatment, percent of cells in G1 and G2/M phase was measured using Hoechst staining*p<0.05**p<0.001, #p<0.0001.
MiaPaCa-2 cells were grown to 70% confluency. Cells were treated with hydroxyurea (HU) in complete medium to a final concentration of 4 mM for 24 hrs.

[3] = system: PDAC cells (MiaPaCa-2, cfPac-1); test: Surface PS by annexin V-FITC flow cytometry after GEM exposure in vitro; format: cell-based, human
Procedure: (§1) Cells were isolated 48 hr. following treatment with 40 mg/kg GEM, stained with annexin V-FITC and analyzed by flow cytometry. Only those cells that were negative for PI staining were assessed for annexin V labeling. Less than 10% of the cells (in vitro or in vivo) were killed by the GEM treatment.
Phosphatidylserine levels measurements. Surface membrane PS levels were measured using annexin V-FITC (Invitrogen, Carlsbad, CA) as previously described (Chu et al. PLoS One 2013; 8(10):e75507, Davis et al. Oncotarget 2019; 10:856-868). In brief, cells were harvested using trypsin-EDTA (Thermo Fisher Scientific); the trypsin was inactivated with complete media and the cells were washed with PBS and resuspended at 1,000,000 cells/ml in annexin staining buffer. Aliquots of cells (0.1 ml/tube) were incubated with 10 μl of annexin V-FITC for 15 minutes at room temperature in the dark. Then 400 μl of annexin staining buffer was added to each tube. Samples were kept on ice and analyzed by flow cytometry within 1 hour after addition of 2 μl of 50 μg/ml propidium iodide (PI; to exclude dead cells). […] To this end, cells were incubated for 24 or 48 hr. with 10 nM-1 μM GEM and then stained with annexin V-FITC and PI and analyzed by flow cytometry.

[4] = system: human pancreatic duct epithelial cells (HPDE); test: Surface PS after GEM exposure in normal pancreatic cells; format: cell-based; details: response to gemcitabine
Procedure: Phosphatidylserine levels measurements. Surface membrane PS levels were measured using annexin V-FITC (Invitrogen, Carlsbad, CA) as previously described (Chu et al. PLoS One 2013; 8(10):e75507, Davis et al. Oncotarget 2019; 10:856-868). In brief, cells were harvested using trypsin-EDTA (Thermo Fisher Scientific); the trypsin was inactivated with complete media and the cells were washed with PBS and resuspended at 1,000,000 cells/ml in annexin staining buffer. Aliquots of cells (0.1 ml/tube) were incubated with 10 μl of annexin V-FITC for 15 minutes at room temperature in the dark. Then 400 μl of annexin staining buffer was added to each tube. Samples were kept on ice and analyzed by flow cytometry within 1 hour after addition of 2 μl of 50 μg/ml propidium iodide (PI; to exclude dead cells). The effects of GEM exposure on surface PS levels were studied in human PDAC cell lines (cfPac-1 and Mia-PaCa-2), a mouse PDAC cell line (p53 2.1.1) (Collisson et al. Cancer Discov 2012; 2(8):685-93) and immortalized, non-tumorigenic human pancreatic duct epithelial cells (HPDE). To this end, cells were incubated for 24 or 48 hr. with 10 nM-1 μM GEM and then stained with annexin V-FITC and PI and analyzed by flow cytometry.

[5] = system: MiaPaCa-2 subcutaneous tumors; test: Surface PS of tumor cells isolated from subcutaneous xenografts after GEM in vivo; set-up: species or system mouse
Procedure: as §1
For assessment of surface PS, when the subcutaneous tumors were 100-300 mm^3, some mice were treated with 40 mg/kg GEM and the tumors were removed 48 hr. later. The tumors were minced then incubated with 5 ml of collagenase type IV (200 U/ml) at 37° C. for 2 hrs. The cells were passed through a 40 μm filter, washed with PBS then stained with annexin V-FITC and analyzed by flow cytometry.

[6] = Mouse body weight during treatment; format: in vivo; details: tumor-bearing mice, compared to control or to GEM alone
Source text: The mice treated in FIG. 6 were weighed on the indicated days. […] However, SapC-DOPS prevented the weight loss due to GEM alone. *p<0.01 between saline and GEM alone. #p<0.01 between GEM and SapC-DOPS or GEM and the combination of GEM and SapC-DOPS.

**Q.** Which “cell death in low vs high surface PS populations” value (cfPac-1 cells; sorted cells, 50 nM GEM) does the source give for Nc1ccn([C@@H]2O[C@H](CO)[C@@H](O)C2(F)F)c(=O)n1 [GEM, 2′, 2′-difluoro 2′deoxycytidine] here?
**A.** Its value is “cell death was more profound in the low surface PS population compared to the high surface PS population”.

**Q.** And the “cell killing in low vs high surface PS populations” value (cfPac-1 cells; sorted cfPac-1 cells, GEM 72 hr, MTT)?
**A.** Its value is “killed more cells from the low surface PS population compared to the high surface PS population”.

**Q.** And the “percentage of cells in G1 phase” value [1]?
**A.** Its value is “significant decrease in the percentage of cells in the G1 phase”.

**Q.** What about the “percentage of cells in G2/M phase” value [1] of the same molecule?
**A.** Its value is “increased percentage in the G2/M phase”.

**Q.** What about the “cyclin B1/cyclin D1 protein ratio” value [2] of the same molecule?
**A.** Its value is “an increase in the cyclin B1/cyclin D1 ratio”.

**Q.** What about the “targeting of cells when G1 synchronized cells are treated” value (MiaPaCa-2 cells) of the same molecule?
**A.** The value was “increased targeting of G1 cells compared to SapC-DOPS”.

**Q.** And the “surface PS in viable (PI-negative) PDAC cells” value ([3]; sub-toxic GEM, 48 hr, annexin V-FITC)?
**A.** The value was “increased surface PS in viable PDAC cells”.

**Q.** And the “apoptosis at sub-toxic concentrations” value ([3]; sub-toxic concentrations of GEM, PDAC cells)?
**A.** The value was < 10%.

**Q.** What about the “PS surface expression in normal pancreatic cells” value [4] of the same molecule?
**A.** The value was “no increased PS surface expression”.

**Q.** And the “surface PS in tumor cells isolated from subcutaneous xenografts” value ([5]; 48 hrs after 40 mg/kg GEM in vivo)?
**A.** Its value is “induced an increase in surface PS in tumor cells”.

**Q.** And the “cells killed by the GEM treatment” value ([5]; in vitro or in vivo, FIG. 4 treatments)?
**A.** The value was “Less than 10%”.

**Q.** What about the mouse weight [6] of the same molecule?
**A.** The mouse weight was “significant decrease in mouse weight”.
